Converted amounts (≈) assume the structure as drawn.
How the values were obtained:
[1] = tested on: Candida albicans; assay: In vitro assay for antifungal activity (MIC80); assay type: cell-based; details: concentration at which 80% inhibition of fungus growth occurs, RPMI 1640, alamarBlue, 24 hours, duplicate; for MIC80: Candida albicans
Protocol: (§1) Each fungal strain to be tested was inoculated onto Sabouraud dextrose agar, YM agar, and potato dextrose agar and cultured at 35° C. for two to three days. Single colonies of such of the yeast fungi were collected from the culture and suspended in 5 ml of 0.85% sterile saline, in an appropriate amount so that the absorbance at 530 nm became 0.108. The suspensions was diluted serially by 1:50 (RPMI 1640 media:sterile saline) and then further diluted by 1:20 (RPMI 1640 media:sterile saline) to prepare liquid inocula having a cell count ranging from 1.0×10^3 to 5.0×10^3 CFU/ml.
(§2) Antifungal samples were prepared by serially diluting each of the compounds of the present invention in RPMI 1640 media to concentrations range from 0.0156 to 32 μg/ml. As an excipient, DMSO was added to the antifungal sample to a final concentration of 1% (VAT). 0.1 ml of each of the serially diluted test solution was added to each well of 96 well plate, followed by adding 0.1 ml of each of the fungal inocula thereto.
(§3) At a given concentration of the test compound, the fungus growth was observed, after 24 hours, with the naked eye for all yeast species except for Cryptococcus neoformans, and the filamentous fungus growth was observed, after 48 hours. Also, using the growth indicator alamarBlue, MIC80, the concentration of the test compound at which 80% inhibition of the fungus growth occurs was determined based on the value observed for the negative control.

[2] = tested on: Candida glabrata; assay: In vitro assay for antifungal activity (MIC80); assay type: cell-based; details: concentration at which 80% inhibition of fungus growth occurs, RPMI 1640, alamarBlue, 24 hours, duplicate; for MIC80: Nakaseomyces glabratus
Protocol: as §1, §2, §3

[3] = tested on: Candida krusei; assay: In vitro assay for antifungal activity (MIC80); assay type: cell-based; details: concentration at which 80% inhibition of fungus growth occurs, RPMI 1640, alamarBlue, 24 hours, duplicate; for MIC80: Pichia kudriavzevii
Protocol: as §1, §2, §3

[4] = tested on: Candida parapsilosis; assay: In vitro assay for antifungal activity (MIC80); assay type: cell-based; details: concentration at which 80% inhibition of fungus growth occurs, RPMI 1640, alamarBlue, 24 hours, duplicate; for MIC80: Lodderomyces parapsilosis
Protocol: as §1, §2, §3

[5] = tested on: Candida tropicallis; assay: In vitro assay for antifungal activity (MIC80); assay type: cell-based; details: concentration at which 80% inhibition of fungus growth occurs, RPMI 1640, alamarBlue, 24 hours, duplicate; for MIC80: Candida
Protocol: as §1, §2, §3

[6] = tested on: Cryptococcus neoformans; assay: In vitro assay for antifungal activity (MIC80); assay type: cell-based; details: concentration at which 80% inhibition of fungus growth occurs, RPMI 1640, alamarBlue, duplicate; for MIC80: Cryptococcus neoformans
Protocol: as §1, §2, §3

[7] = tested on: Candida albicans; assay: In vivo assay for antifungal activity (survival of infected mice); details: male mice, Candida albicans i.v.; 10 mg/kg orally once a day for seven days from 2 hours after infection; survival 28 days after infection
Protocol: 0.1 mL of a suspension containing 5×10^7 CFU/ml of Candida albicans was administered to each of 10 male mice by intravenous injection. 10 mg/kg of each of the test compounds to orally administer to the inoculated mouse 2 hours after the fungal infection. The test compound was administered once a day for seven days. The number of mice which survived the fungal infection for 28 days after the fungal infection was determined as % survival for each test group, and the results are given in Table 7: […]

[8] = Assay for subacute toxicity in mice; assay type: in vivo
Protocol: Subacute cytotoxicity tests were conducted by administering Example compounds 41 and 45, each suspended in aqueous 0.5% methylcellulose to mice once a day for 2 weeks.

[9] = mice, suspended in aqueous 0.5% methylcellulose, once a day for 2 weeks

Row | MIC80 [1] [µg/mL] | MIC80 [2] [µg/mL] | MIC80 [3] [µg/mL] | MIC80 [4] [µg/mL] | MIC80 [5] [µg/mL] | MIC80 [6] [µg/mL] | Compound | % Survival [7] [%] | changes in the living states, organs, liver enzyme and liver weight [8, 9] | toxic syndromes [8, 9] | MIC80 Candida albicans [1] | MIC80 Candida glabrata [2] [µg/mL] | MIC80 Candida krusei [3] [µg/mL] | MIC80 Candida parapsilosis [4] | MIC80 Candida tropicallis [5] | MIC80 Cryptococcus neoformans [6] [µg/mL] | toxic syndromes ([8]; mouse, in vivo)
1 | ≤ 0.015 | 4 (≈ 7.81 µM) | 0.5 (≈ 0.977 µM) | ≤ 0.015 | 0.125 (≈ 0.244 µM) | 0.125 (≈ 0.244 µM) | C[C@@H](n1cc(-n2ccn(-c3ccc(Cl)cc3)c2=O)cn1)[C@](O)(Cn1cncn1)c1ccc(F)cc1F [Example 23, 3-(4-Chlorophenyl)-1-(1-((2R,3R)-3-(2,4-difluorophenyl)-3-hydroxy-4-(1H-1,2,4-triazol-1-yl)butan-2-yl)-1H-pyrazol-4-yl)-1H-imidazole-2(3H)-one] | – | – | – | – | – | – | – | – | – | –
2 | ≤ 0.015 | 8 (≈ 15.6 µM) | 2 (≈ 3.89 µM) | 0.125 (≈ 0.243 µM) | 1 (≈ 1.95 µM) | 0.25 (≈ 0.486 µM) | C[C@@H](n1cc(N2CCN(c3ccc(Cl)cc3)C2=O)cn1)[C@](O)(Cn1cncn1)c1ccc(F)cc1F [Example 1, 1-(4-Chlorophenyl)-3-(1-((2R,3R)-3-(2,4-difluorophenyl)-3-hydroxy-4-(1H-1,2,4-triazol-1-yl)butan-2-yl)-1H-pyrazol-4-yl)imidazolidin-2-one] | – | – | – | – | – | – | – | – | – | –
3 | 0.125 (≈ 0.295 µM) | – | 4 (≈ 9.45 µM) | 0.125 (≈ 0.295 µM) | – | 1 (≈ 2.36 µM) | C[C@@H](n1cc(/C=C/c2cnccn2)cn1)[C@](O)(Cn1cncn1)c1ccc(F)cc1F [Example 53, (2R,3R,E)-2-(2,4-Difluorophenyl)-3-(4-(2-(pyrazin-2-yl)vinyl)-1H-pyrazol-1-yl)-1-(1H-1,2,4-triazol-1-yl)butan-2-ol] | – | – | – | – | – | – | – | – | – | –
4 | ≤ 0.015 | 1 (≈ 2.18 µM) | 0.5 (≈ 1.09 µM) | ≤ 0.015 | 0.062 (≈ 0.135 µM) | ≤ 0.015 | C[C@@H](n1cc(CCc2ccc(Cl)cc2)cn1)[C@](O)(Cn1cncn1)c1ccc(F)cc1F [Example 39, (2R,3R)-3-(4-(4-Chlorophenethyl)-1H-pyrazol-1-yl)-2-(2,4-difluorophenyl)-1-(1H-1,2,4-triazol-1-yl)butan-2-ol] | – | – | – | – | – | – | – | – | – | –
5 | ≤ 0.015 | 2 (≈ 4.55 µM) | 0.25 (≈ 0.569 µM) | ≤ 0.015 | ≤ 0.015 | 0.031 (≈ 0.0705 µM) | C[C@@H](n1cc(/C=C/c2ccc(F)cc2)cn1)[C@](O)(Cn1cncn1)c1ccc(F)cc1F [Example 40, (2R,3R,E)-2-(2,4-Difluorophenyl)-3-(4-(4-fluorostyryl)-1H-pyrazol-1-yl)-1-(1H-1,2,4-triazol-1-yl)butan-2-ol] | – | – | – | – | – | – | – | – | – | –
6 | – | – | – | – | – | – | C[C@@H](n1cc(C#Cc2ccc(F)cc2)cn1)[C@](O)(Cn1cncn1)c1ccc(F)cc1F [Example 45] | 100 | – | – | ≦0.015 μg/ml | 2 (≈ 4.57 µM) | 0.5 (≈ 1.14 µM) | ≦0.015 μg/ml | ≦0.015 μg/ml | 0.062 (≈ 0.142 µM) | none of the mice were observed to suffer from toxic syndromes
7 | ≤ 0.015 | 2 (≈ 4.53 µM) | 0.25 (≈ 0.566 µM) | ≤ 0.015 | ≤ 0.015 | 0.125 (≈ 0.283 µM) | C[C@@H](n1cc(CCc2ccc(F)cc2)cn1)[C@](O)(Cn1cncn1)c1ccc(F)cc1F [Example 38, (2R,3R)-2-(2,4-Difluorophenyl)-3-(4-(4-fluorophenethyl)-1H-pyrazol-1-yl)-1-(1H-1,2,4-triazol-1-yl)butan-2-ol] | – | – | – | – | – | – | – | – | – | –

Row | Compound | MIC80 [1] [µg/mL] | MIC80 [2] [µg/mL] | MIC80 [3] [µg/mL] | MIC80 [4] [µg/mL] | MIC80 [5] [µg/mL] | MIC80 [6] [µg/mL] | % Survival [7] [%] | changes in the living states, organs, liver enzyme and liver weight [8, 9] | toxic syndromes [8, 9] | MIC80 Candida albicans [1] | MIC80 Candida glabrata [2] [µg/mL] | MIC80 Candida krusei [3] [µg/mL] | MIC80 Candida parapsilosis [4] | MIC80 Candida tropicallis [5] | MIC80 Cryptococcus neoformans [6] [µg/mL] | toxic syndromes ([8]; mouse, in vivo)
8 | OC(Cn1cncn1)(Cn1cncn1)c1ccc(F)cc1F [Fluconazole, fluconazole, reference compound] | 4 (≈ 13.1 µM) | > 32 | 4 (≈ 13.1 µM) | > 32 | > 32 | 32 (≈ 104 µM) | 50 | – | – | – | – | – | – | – | – | –
9 | C[C@@H](n1cc(/C=C/c2ccc(Cl)cc2)cn1)[C@](O)(Cn1cncn1)c1ccc(F)cc1F [Example 41, (2R,3R,E)-3-(4-(4-Chlorostyryl)-1H-pyrazol-1-yl)-2-(2,4-difluorophenyl)-1-(1H-1,2,4-triazol-1-yl)butan-2-ol] | ≤ 0.015 | 1 (≈ 2.19 µM) | 0.5 (≈ 1.1 µM) | ≤ 0.015 | 0.125 (≈ 0.274 µM) | ≤ 0.015 | 100 | no changes | none of the mice were observed to suffer from toxic syndromes | – | – | – | – | – | – | –

From patent publication US8063229B2, “Antifungal triazole derivatives, method for the preparation thereof and pharmaceutical composition containing same” (Daewoong Pharmaceutical Co., Ltd., priority 2006, dated 2011)
